Measured values reported in ChEMBL document CHEMBL5726876, “NHE3-binding compounds and methods for inhibiting phosphate transport” (2019).

Test: Cell-based activity under Prompt Conditions: Cell-based activity under Prompt Conditions. Rat or human NHE3-mediated Na+-dependent H+ antiport was measured using a modification of the pH sensitive dye method originally reported by Paradiso (PNAS USA. 81:7436-7440, 1984). Opossum kidney (OK) cells were obtained from the ATCC and propagated per their instructions. The rat NHE3 gene (GenBank M85300) or the human NHE3 gene (GenBank NM_004174.1) was introduced into OK cells via electroporation, and cells were seeded into 96 well plates and grown overnight. Medium was aspirated from the wells, cells were washed twice with NaCl-HEPES buffer (100 mM NaCl, 50 mM HEPES, 10 mM glucose, 5 mM KCl, 2 mM CaCl2, 1 mM MgCl2, pH 7.4), then incubated for 30 min at room temperature with NH4Cl-HEPES buffer (20 mM NH4Cl, 80 mM NaCl, 50 mM HEPES, 5 mM KCl, 2 mM CaCl2, 1 mM MgCl2, pH 7.4) containing 5 μM bis(acetoxymethyl) 3,3′-(3′,6′-bis(acetoxymethoxy)-5-((acetoxymethoxy)carbonyl)-3-oxo-3H-spiro[isobenzofuran-1,9′-xanthene]-2′,7′-diyl)dipropanoate (BCECF-AM).Cells were washed twice with Ammonium free, Na+-free HEPES (100 mM choline, 50 mM HEPES, 10 mM glucose, 5 mM KCl, 2 mM CaCl2, 1 mM MgCl2, pH 7.4) and incubated in the same buffer for 10 minutes at room temperature to lower intracellular pH. […] Initial rates were plotted as the average 2 or more replicates, and pIC50 values were estimated using GraphPad Prism.

Row | SMILES | IC50
1 | CN(CC(=O)O)CC(=O)NC(CCC(=O)NCCOCCOCCNS(=O)(=O)c1cccc([C@@H]2CN(C)Cc3c(Cl)cc(Cl)cc32)c1)(CCC(=O)NCCOCCOCCNS(=O)(=O)c1cccc([C@@H]2CN(C)Cc3c(Cl)cc(Cl)cc32)c1)CCC(=O)NCCOCCOCCNS(=O)(=O)c1cccc([C@@H]2CN(C)Cc3c(Cl)cc(Cl)cc32)c1 | 50.1 nM
2 | CNC(=O)NC(CCC(=O)NCCOCCOCCNS(=O)(=O)c1cccc([C@@H]2CN(C)Cc3c(Cl)cc(Cl)cc32)c1)(CCC(=O)NCCOCCOCCNS(=O)(=O)c1cccc([C@@H]2CN(C)Cc3c(Cl)cc(Cl)cc32)c1)CCC(=O)NCCOCCOCCNS(=O)(=O)c1cccc([C@@H]2CN(C)Cc3c(Cl)cc(Cl)cc32)c1 | 794 nM
3 | CN1Cc2c(Cl)cc(Cl)cc2[C@H](c2cccc(S(=O)(=O)NCCOCCOCCNC(=O)CCC(CCC(=O)NCCOCCOCCNS(=O)(=O)c3cccc([C@@H]4CN(C)Cc5c(Cl)cc(Cl)cc54)c3)(CCC(=O)NCCOCCOCCNS(=O)(=O)c3cccc([C@@H]4CN(C)Cc5c(Cl)cc(Cl)cc54)c3)NC(=O)N(C)C[C@H](O)[C@@H](O)[C@H](O)[C@H](O)CO)c2)C1 | 7.94 nM
4 | CN1Cc2c(Cl)cc(Cl)cc2[C@H](c2cccc(S(=O)(=O)N(C)CCOCCOCCNC(=O)CCN(CCC(=O)NCCOCCOCCN(C)S(=O)(=O)c3cccc([C@@H]4CN(C)Cc5c(Cl)cc(Cl)cc54)c3)CCC(=O)NCCOCCOCCN(C)S(=O)(=O)c3cccc([C@@H]4CN(C)Cc5c(Cl)cc(Cl)cc54)c3)c2)C1 | 316 nM
5 | CN1Cc2c(Cl)cc(Cl)cc2[C@H](c2cccc(S(=O)(=O)NCCOCCOCCNC(=O)CCC(CCC(=O)NCCOCCOCCNS(=O)(=O)c3cccc([C@@H]4CN(C)Cc5c(Cl)cc(Cl)cc54)c3)(CCC(=O)NCCOCCOCCNS(=O)(=O)c3cccc([C@@H]4CN(C)Cc5c(Cl)cc(Cl)cc54)c3)NC(N)=O)c2)C1 | 316 nM
6 | O=C(NCCCCNC(=O)NCCOCCOCCNS(=O)(=O)c1ccc(O[C@H]2c3cc(F)ccc3C[C@@H]2N2CCCCC2)cc1)NCCOCCOCCNS(=O)(=O)c1ccc(O[C@H]2c3cc(F)ccc3C[C@@H]2N2CCCCC2)cc1 | 1.26 nM
7 | CN1Cc2c(Cl)cc(Cl)cc2[C@H](c2cccc(S(=O)(=O)NCCOCCOCCNC(=O)CCC(CCC(=O)NCCOCCOCCNS(=O)(=O)c3cccc([C@@H]4CN(C)Cc5c(Cl)cc(Cl)cc54)c3)(CCC(=O)NCCOCCOCCNS(=O)(=O)c3cccc([C@@H]4CN(C)Cc5c(Cl)cc(Cl)cc54)c3)NC(=O)CCCC(=O)O)c2)C1 | 50.1 nM
8 | CCN(CCOCCOCCNC(=O)NCCCN(CCCNC(=O)NCCOCCOCCN(CC)S(=O)(=O)c1cccc([C@@H]2CN(C)Cc3c(Cl)cc(Cl)cc32)c1)CCCNC(=O)NCCOCCOCCN(CC)S(=O)(=O)c1cccc([C@@H]2CN(C)Cc3c(Cl)cc(Cl)cc32)c1)S(=O)(=O)c1cccc([C@@H]2CN(C)Cc3c(Cl)cc(Cl)cc32)c1 | 1000 nM
9 | CN(C)[C@H]1Cc2ccc(F)cc2[C@@H]1Oc1ccc(S(=O)(=O)NCCOCCOCCNC(=O)NCCCCNC(=O)NCCOCCOCCNS(=O)(=O)c2ccc(O[C@H]3c4cc(F)ccc4C[C@@H]3N(C)C)cc2)cc1 | < 10000 nM
10 | N[C@@H]1CCCN([C@H]2Cc3c(Cl)cc(Cl)cc3[C@@H]2Oc2ccc(S(=O)(=O)NCCOCCOCCNC(=O)NCCCCNC(=O)NCCOCCOCCNS(=O)(=O)c3ccc(O[C@H]4c5cc(Cl)cc(Cl)c5C[C@@H]4N4CCC[C@@H](N)C4)cc3)cc2)C1 | 39.8 nM
11 | CN1Cc2c(Cl)cc(Cl)cc2[C@H](c2cccc(S(=O)(=O)NCCOCCOCCNC(=O)CCC(CCC(=O)NCCOCCOCCNS(=O)(=O)c3cccc([C@@H]4CN(C)Cc5c(Cl)cc(Cl)cc54)c3)(CCC(=O)NCCOCCOCCNS(=O)(=O)c3cccc([C@@H]4CN(C)Cc5c(Cl)cc(Cl)cc54)c3)NC(=O)COCC(=O)O)c2)C1 | 25.1 nM
12 | CN1Cc2c(Cl)cc(Cl)cc2[C@H](c2cccc(S(=O)(=O)NCCOCCOCCNC(=O)CCC(CCC(=O)NCCOCCOCCNS(=O)(=O)c3cccc([C@@H]4CN(C)Cc5c(Cl)cc(Cl)cc54)c3)(CCC(=O)NCCOCCOCCNS(=O)(=O)c3cccc([C@@H]4CCN(C)c5c(Cl)cc(Cl)cc54)c3)NC(=O)[C@H]3CCCC[C@@H]3C(=O)O)c2)C1 | 126 nM
